PMC8086025, “A benzopyran with antiarrhythmic activity is an inhibitor of Kir3.1-containing potassium channels” (The Journal of Biological Chemistry, 2021)
“And” between values parts separate entries of the source, which are not always exact repeats. Equal values may be shown once. “Also recorded” adds a separate entry of the source. Read-outs that look alike come from different tables or passages of the source.

Key:
Kir3.4 = target: T1, Kir3.4 (Homo sapiens, UniProt P48544); test: Cloned cardiac ion channel patch clamp, Kir3.4; assay type: cell-based
T1 construct: expressed in transfected cells

Dopamine transporter = target: T2, Dopamine transporter (Homo sapiens, UniProt Q01959); test: Radioligand binding, [3H]BTCP
T2 construct: expressed in transfected cells; host or cells: CHO cells

Neurokinin NK1 = target: T3, Neurokinin NK1 (Homo sapiens, UniProt P25103); test: Radioligand binding, [125I]-Substance P LYS3, U373MG uppsala; details: read-out: % Specific Binding at 10 µM
T3 construct: endogenous in cells; host or cells: U373MG uppsala

Adenosine A1 = target: T4, Adenosine A1 (Homo sapiens, UniProt P30542); test: Radioligand binding, [3H]DPCPX; details: read-out: % Specific Binding at 10 µM
T4 construct: expressed in transfected cells; host or cells: CHO cells

[1] = Rat PK, IV/PO cross over and brain penetration; assay type: in vivo
Kir3.1(D173A) mutant = target: T5, Kir3.1(D173A) mutant (Homo sapiens, UniProt P48544+P48549, D173A); test: TEVC in Xenopus oocytes, Kir3.1(D173A)/4; assay type: cell-based; details: 1 μM
T5 construct: expressed in transfected cells; host or cells: Xenopus laevis oocytes (cRNA injection)
Description: (§1) X. laevis oocytes were isolated and microinjected as previously described ([6]). Human Kir3.1, mouse Kir3.2, and human Kir3.4 DNA constructs were used for electrophysiology experiments. All cRNA constructs were injected in the amount of 2 ng per oocyte. Injected oocytes were incubated for 2 to 3 days at 18 °C to allow for expression. Whole-cell oocyte currents were then measured using a GeneClamp 500 amplifier (Axon Instruments). Microelectrodes had resistances of 0.5 to 1 megohm using a 3M KCl solution in 1.4% agarose. Oocytes were perfused with a low K^+ (LK) solution ND96 (2 mM KCl, 96 mM NaCl, 1 mM MgCl2, 1.8 mM CaCl2, 5 mM HEPES-Na) to establish a baseline for the recordings. Basal current was measured in a high potassium (HK) solution ND96K (96 mM KCl, 10 mM HEPES-K, 1 mM MgCl2, 1.8 mM CaCl2). To block the current, the oocyte chamber was perfused with 4 mM BaCl2 in ND96K. Only the Barium-sensitive current was used for statistical analysis. To measure the inhibitory activity of the channels, 1 μM BP-G1 in ND96K (HK) was used. Typically, oocytes were held at 0 mV (EK) and the current was monitored constantly using a ramp protocol with a command potential from −80 to +80 mV. Current amplitude was measured at the end of a 1 s sweep. All currents were analyzed when they reached steady state. Error bars in the figures represent SD (N > 4).

Kir3.1(E141A/D173A) = Kir3.1(E141A/D173A) (Homo sapiens, UniProt P48544+P48549, D173A/E141A); assay type: cell-based; details: 1 μM, TEVC
Kir3.4/4(S143F, N179D) = target: T6, Kir3.4/4(S143F, N179D) (Homo sapiens, UniProt P48544, N179D/S143F); test: TEVC in Xenopus oocytes, Kir3.4/4(S143F, N179D); assay type: cell-based; details: read-out: less inhibition of Kir3.4/4(S143F, N179D) than of Kir3.4/4(S143F)
T6 construct: expressed in transfected cells; host or cells: Xenopus laevis oocytes (cRNA injection)
Description: as §1

Kir3.1(T143A)/4 = Kir3.1(T143A)/4 (Homo sapiens, UniProt P48544+P48549, T143A); assay type: cell-based; details: 1 μM, TEVC
Kir3.1/2 channel = target: T7, Kir3.1/2 channel (UniProt P48542+P48549); test: TEVC in Xenopus oocytes, Kir3.1/2; assay type: cell-based, human Kir3.1, mouse Kir3.2; set-up: expressed in transfected cells; details: TEVC oocyte experiments; read-out: IC50, inhibition of Kir3.1/2
T7 sequence (P48549 1-501): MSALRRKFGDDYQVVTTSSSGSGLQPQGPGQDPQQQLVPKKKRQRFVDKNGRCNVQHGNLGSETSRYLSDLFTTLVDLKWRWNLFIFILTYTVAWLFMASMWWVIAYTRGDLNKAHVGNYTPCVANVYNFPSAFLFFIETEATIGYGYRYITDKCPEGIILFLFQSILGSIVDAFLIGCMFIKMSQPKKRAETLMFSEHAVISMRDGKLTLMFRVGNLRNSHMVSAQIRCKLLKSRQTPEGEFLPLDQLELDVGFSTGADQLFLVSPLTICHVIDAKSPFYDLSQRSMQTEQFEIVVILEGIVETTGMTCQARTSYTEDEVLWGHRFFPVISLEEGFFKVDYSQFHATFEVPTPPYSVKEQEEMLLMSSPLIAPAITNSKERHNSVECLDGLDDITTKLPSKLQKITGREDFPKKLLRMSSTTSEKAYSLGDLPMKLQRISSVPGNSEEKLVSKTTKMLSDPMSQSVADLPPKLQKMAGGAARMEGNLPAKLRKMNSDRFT
T7 sequence (P48542 1-425): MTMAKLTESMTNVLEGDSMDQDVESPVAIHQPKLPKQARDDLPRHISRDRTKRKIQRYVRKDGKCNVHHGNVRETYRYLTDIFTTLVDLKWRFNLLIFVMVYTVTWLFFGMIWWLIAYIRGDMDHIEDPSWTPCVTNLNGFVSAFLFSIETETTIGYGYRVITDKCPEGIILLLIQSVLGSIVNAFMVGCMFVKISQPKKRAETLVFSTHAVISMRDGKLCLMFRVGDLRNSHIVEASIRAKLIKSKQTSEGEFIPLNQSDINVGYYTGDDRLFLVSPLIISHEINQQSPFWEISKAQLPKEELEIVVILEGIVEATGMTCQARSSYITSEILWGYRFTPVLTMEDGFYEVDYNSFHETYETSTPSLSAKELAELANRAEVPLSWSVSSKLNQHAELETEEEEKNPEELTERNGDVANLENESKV
Description: as §1

hERG channel = hERG channel (Homo sapiens, UniProt Q12809); test: hERG currents in Xenopus oocytes, TEVC
Kir6.2/SUR2A = target: T8, Kir6.2/SUR2A (Homo sapiens, UniProt O60706+Q14654); test: Cloned cardiac ion channel patch clamp, Kir6.2/SUR2A; assay type: cell-based
T8 construct: Andrew Tinker, UCL; host or cells: HEK293
T8 sequence (Q14654 whole entry): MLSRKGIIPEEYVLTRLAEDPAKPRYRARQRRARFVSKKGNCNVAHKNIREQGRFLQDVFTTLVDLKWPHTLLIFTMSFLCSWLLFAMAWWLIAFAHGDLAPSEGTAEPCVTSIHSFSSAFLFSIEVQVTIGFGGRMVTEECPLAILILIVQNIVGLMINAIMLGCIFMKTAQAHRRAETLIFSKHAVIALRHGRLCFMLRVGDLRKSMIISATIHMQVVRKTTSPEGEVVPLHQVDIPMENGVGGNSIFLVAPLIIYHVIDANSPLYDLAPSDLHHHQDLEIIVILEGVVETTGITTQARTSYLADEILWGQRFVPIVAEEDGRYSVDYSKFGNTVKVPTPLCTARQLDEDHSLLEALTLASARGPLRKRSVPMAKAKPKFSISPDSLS
T8 sequence (O60706 whole entry): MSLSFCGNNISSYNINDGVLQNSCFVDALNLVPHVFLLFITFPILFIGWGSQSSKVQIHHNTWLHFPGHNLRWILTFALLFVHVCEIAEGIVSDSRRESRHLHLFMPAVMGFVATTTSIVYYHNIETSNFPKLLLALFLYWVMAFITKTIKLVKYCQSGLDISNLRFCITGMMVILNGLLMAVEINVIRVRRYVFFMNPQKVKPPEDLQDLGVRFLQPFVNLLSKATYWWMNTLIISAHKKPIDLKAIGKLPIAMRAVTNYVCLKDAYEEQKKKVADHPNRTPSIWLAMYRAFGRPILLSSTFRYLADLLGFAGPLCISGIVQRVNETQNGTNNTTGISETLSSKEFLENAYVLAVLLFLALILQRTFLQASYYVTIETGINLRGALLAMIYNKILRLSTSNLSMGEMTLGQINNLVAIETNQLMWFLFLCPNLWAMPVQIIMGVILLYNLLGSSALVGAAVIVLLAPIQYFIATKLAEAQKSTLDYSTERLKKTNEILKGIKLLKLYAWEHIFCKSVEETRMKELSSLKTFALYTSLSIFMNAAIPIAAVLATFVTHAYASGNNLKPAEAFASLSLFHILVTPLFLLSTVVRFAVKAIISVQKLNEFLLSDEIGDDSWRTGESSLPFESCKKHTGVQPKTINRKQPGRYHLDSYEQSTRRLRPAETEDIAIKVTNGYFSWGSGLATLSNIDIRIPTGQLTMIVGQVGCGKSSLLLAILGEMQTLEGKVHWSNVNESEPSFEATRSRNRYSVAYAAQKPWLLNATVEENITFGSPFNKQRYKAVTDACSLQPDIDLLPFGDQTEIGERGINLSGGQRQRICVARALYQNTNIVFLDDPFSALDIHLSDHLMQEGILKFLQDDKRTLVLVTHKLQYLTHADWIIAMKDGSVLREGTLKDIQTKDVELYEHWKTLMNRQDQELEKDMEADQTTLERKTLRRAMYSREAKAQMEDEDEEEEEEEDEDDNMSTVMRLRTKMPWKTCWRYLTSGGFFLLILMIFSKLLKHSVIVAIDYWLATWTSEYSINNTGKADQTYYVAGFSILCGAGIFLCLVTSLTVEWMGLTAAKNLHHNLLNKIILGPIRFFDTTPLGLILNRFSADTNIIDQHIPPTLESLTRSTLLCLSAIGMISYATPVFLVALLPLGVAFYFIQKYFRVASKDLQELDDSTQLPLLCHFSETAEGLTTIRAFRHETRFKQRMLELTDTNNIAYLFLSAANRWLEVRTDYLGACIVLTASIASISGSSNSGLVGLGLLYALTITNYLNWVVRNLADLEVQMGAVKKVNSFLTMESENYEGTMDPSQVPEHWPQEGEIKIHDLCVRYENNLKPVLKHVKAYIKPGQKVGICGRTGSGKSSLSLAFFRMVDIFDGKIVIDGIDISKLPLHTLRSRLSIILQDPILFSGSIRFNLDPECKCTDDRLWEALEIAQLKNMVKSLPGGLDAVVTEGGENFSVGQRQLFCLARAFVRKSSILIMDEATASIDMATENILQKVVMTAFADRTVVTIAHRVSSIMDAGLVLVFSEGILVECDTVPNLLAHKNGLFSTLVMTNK

T2 sequence (Q01959 whole entry): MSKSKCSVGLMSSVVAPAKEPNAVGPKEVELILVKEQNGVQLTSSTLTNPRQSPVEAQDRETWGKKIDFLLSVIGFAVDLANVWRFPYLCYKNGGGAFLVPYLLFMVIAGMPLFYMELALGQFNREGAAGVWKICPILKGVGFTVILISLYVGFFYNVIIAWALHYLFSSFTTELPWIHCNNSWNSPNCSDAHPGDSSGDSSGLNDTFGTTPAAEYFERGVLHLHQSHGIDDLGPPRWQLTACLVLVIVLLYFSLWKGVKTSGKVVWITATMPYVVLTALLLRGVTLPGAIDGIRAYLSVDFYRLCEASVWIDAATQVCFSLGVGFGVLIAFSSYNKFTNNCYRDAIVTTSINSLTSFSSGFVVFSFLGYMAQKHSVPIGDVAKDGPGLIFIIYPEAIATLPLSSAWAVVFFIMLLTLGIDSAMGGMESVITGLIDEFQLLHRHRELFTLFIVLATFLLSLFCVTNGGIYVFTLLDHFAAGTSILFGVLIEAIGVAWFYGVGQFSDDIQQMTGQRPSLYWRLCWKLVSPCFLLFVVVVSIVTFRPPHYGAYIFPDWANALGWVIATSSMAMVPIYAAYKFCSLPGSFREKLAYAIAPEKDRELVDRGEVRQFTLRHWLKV
Sequence of hERG channel (Q12809 whole entry): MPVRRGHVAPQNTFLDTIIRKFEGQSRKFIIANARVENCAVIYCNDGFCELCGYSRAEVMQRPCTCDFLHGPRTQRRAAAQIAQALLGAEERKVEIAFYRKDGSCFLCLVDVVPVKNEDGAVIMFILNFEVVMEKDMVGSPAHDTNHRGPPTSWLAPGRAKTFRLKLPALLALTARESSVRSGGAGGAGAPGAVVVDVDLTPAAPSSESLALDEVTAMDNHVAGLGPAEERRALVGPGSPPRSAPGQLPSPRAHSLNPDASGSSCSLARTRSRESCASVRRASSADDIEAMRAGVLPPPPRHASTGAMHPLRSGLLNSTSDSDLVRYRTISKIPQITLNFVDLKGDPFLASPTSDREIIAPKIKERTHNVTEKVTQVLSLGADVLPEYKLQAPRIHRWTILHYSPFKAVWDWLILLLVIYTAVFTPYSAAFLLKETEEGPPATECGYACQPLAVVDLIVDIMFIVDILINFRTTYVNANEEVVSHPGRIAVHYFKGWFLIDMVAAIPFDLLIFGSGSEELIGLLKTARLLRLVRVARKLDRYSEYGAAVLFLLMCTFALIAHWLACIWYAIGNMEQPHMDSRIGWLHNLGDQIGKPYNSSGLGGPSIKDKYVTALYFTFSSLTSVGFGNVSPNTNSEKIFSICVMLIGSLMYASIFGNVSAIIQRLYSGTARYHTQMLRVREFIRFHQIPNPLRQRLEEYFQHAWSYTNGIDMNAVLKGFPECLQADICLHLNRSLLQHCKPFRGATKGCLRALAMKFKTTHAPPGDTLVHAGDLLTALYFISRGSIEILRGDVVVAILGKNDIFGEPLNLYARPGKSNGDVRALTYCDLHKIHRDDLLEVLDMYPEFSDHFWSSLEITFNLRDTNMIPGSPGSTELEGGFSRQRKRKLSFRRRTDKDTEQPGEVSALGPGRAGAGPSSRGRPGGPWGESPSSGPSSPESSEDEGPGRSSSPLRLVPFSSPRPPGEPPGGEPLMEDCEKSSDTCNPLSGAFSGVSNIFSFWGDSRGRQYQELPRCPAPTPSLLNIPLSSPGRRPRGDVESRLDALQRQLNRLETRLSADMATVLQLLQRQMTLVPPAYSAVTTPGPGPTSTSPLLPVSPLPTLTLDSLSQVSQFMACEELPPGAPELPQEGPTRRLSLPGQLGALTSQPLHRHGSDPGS
Sequence of Kir3.1(E141A/D173A) (P48549 whole entry E141A/D173A): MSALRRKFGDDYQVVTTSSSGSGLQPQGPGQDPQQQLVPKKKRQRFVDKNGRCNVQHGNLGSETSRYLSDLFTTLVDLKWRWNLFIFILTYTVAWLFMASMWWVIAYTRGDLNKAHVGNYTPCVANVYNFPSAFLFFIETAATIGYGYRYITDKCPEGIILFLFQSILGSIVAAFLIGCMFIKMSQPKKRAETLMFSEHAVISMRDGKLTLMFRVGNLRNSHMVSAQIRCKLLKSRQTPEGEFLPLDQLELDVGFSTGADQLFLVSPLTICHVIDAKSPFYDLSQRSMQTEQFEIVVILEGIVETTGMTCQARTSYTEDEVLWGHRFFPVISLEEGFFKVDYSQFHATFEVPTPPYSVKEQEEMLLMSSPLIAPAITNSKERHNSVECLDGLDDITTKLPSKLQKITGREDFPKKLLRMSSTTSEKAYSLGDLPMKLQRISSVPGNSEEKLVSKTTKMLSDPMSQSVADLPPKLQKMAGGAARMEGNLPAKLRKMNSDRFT
Sequence of Kir3.1(E141A/D173A) (P48544 whole entry): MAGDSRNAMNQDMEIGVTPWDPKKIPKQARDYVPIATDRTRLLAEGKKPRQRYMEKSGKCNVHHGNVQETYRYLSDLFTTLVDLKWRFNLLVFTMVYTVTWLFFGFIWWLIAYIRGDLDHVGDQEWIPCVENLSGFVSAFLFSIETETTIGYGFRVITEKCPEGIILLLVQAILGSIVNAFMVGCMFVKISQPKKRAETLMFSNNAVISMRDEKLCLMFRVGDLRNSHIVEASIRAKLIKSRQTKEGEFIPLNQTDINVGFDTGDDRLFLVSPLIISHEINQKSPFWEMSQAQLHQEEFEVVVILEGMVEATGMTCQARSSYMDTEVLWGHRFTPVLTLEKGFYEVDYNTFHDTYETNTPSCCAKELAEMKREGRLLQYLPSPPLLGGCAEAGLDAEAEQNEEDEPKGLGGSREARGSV
T5 sequence (P48549 whole entry D173A): as the sequence (P48549 whole entry E141A/D173A) above, with A141E counted along it
T5 sequence (P48544 whole entry): as the sequence (P48544 whole entry) above
T1 sequence (P48544 whole entry): as above
Sequence of Kir3.1(T143A)/4 (P48544 whole entry): as above
Sequence of Kir3.1(T143A)/4 (P48549 whole entry T143A): as the sequence (P48549 whole entry E141A/D173A) above, with A141E, T143A, A173D counted along it
T6 sequence (P48544 whole entry S143F/N179D): as the sequence (P48544 whole entry) above, with S143F, N179D counted along it
T6 sequence (P48544 whole entry, stated change not applied): as the sequence (P48544 whole entry) above

## Cc1cc(CO)nc2cc3c(cc12)OC(C)(C)[C@H](O)[C@H]3NCCc1ccccc1 [BP-G1, (3R,4S)-7-(hydroxymethyl)-2,2,9-trimethyl-4-(2-phenylethylamino)-3,4-dihydropyrano[2,3-g]quinolin-3-ol]
Kir3.4
  IC50: 19800 nM
Dopamine transporter
  IC50: 1000 nM
  Ki: 550 nM
  nH, Dopamine transporter (h): 1
Dopamine transporter; 10 µM
  % Specific Binding at 10 µM: 91.2%
Dopamine transporter; 10 µM, read-out: % Specific Binding at 10 µM
  inhibition at 10 µM: 91.2%
Neurokinin NK1
  inhibition at 10 µM: 42.6%
Adenosine A1
  inhibition at 10 µM: 38.4%
[1]; 1mg/kg iv.
  Co: 3941 ng/mL
[1]; 5mg/kg po.
  CL: 3.3 mL/min/kg
[1]; rat, brain and plasma, 5mg/kg po., read-out: CNS Penetration (B:P)
  Kp: 0.2
[1]; rat, in vivo, 1mg/kg iv.
  Vd: 1 L/kg
  clearance: 3.39 mL/min/kg
[1]; rat, in vivo, 1mg/kg iv. / 5mg/kg po., read-out: Oral bioavailability F%
  bioavailability: 32%
[1]; rat, in vivo, 1mg/kg iv., read-out: Rat iv. AUC∞
  AUC(0-inf): 4950 ng·h/mL
[1]; rat, in vivo, 5mg/kg po.
  Cmax: 1190 ng/mL
[1]; rat, in vivo, 5mg/kg po., read-out: Rat p.o. AUCt
  AUC(0-t): 6420 ng·h/mL
[1]; rat, in vivo, 5mg/kg po., read-out: Rat p.o. AUC∞
  AUC(0-inf): 16800 ng·h/mL
[1]; rat, in vivo, listed under 5mg/kg po.
  half-life: 12.2 h
Kir3.1(D173A) mutant
  current block, Kir3.1(D173A): ~25%
Kir3.1(E141A/D173A)
  current block, Kir3.1(E141A/D173A): abolished any current block; also recorded: abolished the block
Kir3.4/4(S143F, N179D)
  inhibition at 1 µM: 20%
Kir3.1(T143A)/4
  block of Kir3.1(T143A)/4: no significant reduction in BP-G1 block
Kir3.1/2 channel
  IC50: 55.9 nM and 55 nM
hERG channel
  IC50: > 5000 nM
hERG channel; up to 5 μM, Xenopus oocytes
  inhibitory activity on hERG current: did not show inhibitory activity; also recorded: not inhibited
Kir6.2/SUR2A
  IC50: > 10000 nM
